Results on three molecules are retold here after US20120052064A1, “ANTI-HGF ANTIBODY COMBINATIONAL CANCER THERAPIES” (priority 2009, published 2012).

The test system of assay [1] is IM95m human gastric tumor xenograft. In words: Human gastric cancer IM95m tumor xenograft model. It counts as in vivo, mouse. The following applies: SCID mice, s.c. IM95m; day 53 to day 81; HuL2G7 10 mg/kg i.v. once-weekly, erlotinib 25 mg/kg p.o. once-daily days 53-80, or both. As for the experimental part: FIG. 1. (A) Combination effects of humanized L2G7 (HuL2G7) and erlotinib in gastric cancer (tumor) IM95m xenograft model. Treatment was started from 53 days after inoculation. Mice treated with relevant vehicles (i.v. and/or p.o.), HuL2G7 (10 mg/kg/week, i.v., on days 53, 60, 67, and 74), erlotinib (25 mg/kg, p.o., qd×28 doses) or the combined regimen for 28 days. Data represents mean±SD (n=6). *p≦0.025 by one-tailed Dunnett's test (v.s. vehicle). (B) Comparison of differential tumor volumes of the mice group treated with HuL2G7, erlotinib, and a combination of the two. Tumor volume of each mouse on days 53 was subtracted from the volume on days 81. Data represents mean±SD (n=6). # p≦0.05 by Wilcoxon signed-rank test (v.s. combo).

Assay [2] concerns KP-4 human pancreatic tumor xenograft. Conditions: 40 mg/kg.
Description: Sunitinib was administered orally and once-daily at a dose of 40 mg/kg on days 11-25 as its 0.5% methyl cellulose suspension. Administration volume was 10 mL/kg.
In the next assay the target is c-Met receptor (Homo sapiens, UniProt P08581). The following applies: read-out: Kd, high affinity binding site; cited from earlier work.
Sequence of c-Met receptor (P08581 25-1390): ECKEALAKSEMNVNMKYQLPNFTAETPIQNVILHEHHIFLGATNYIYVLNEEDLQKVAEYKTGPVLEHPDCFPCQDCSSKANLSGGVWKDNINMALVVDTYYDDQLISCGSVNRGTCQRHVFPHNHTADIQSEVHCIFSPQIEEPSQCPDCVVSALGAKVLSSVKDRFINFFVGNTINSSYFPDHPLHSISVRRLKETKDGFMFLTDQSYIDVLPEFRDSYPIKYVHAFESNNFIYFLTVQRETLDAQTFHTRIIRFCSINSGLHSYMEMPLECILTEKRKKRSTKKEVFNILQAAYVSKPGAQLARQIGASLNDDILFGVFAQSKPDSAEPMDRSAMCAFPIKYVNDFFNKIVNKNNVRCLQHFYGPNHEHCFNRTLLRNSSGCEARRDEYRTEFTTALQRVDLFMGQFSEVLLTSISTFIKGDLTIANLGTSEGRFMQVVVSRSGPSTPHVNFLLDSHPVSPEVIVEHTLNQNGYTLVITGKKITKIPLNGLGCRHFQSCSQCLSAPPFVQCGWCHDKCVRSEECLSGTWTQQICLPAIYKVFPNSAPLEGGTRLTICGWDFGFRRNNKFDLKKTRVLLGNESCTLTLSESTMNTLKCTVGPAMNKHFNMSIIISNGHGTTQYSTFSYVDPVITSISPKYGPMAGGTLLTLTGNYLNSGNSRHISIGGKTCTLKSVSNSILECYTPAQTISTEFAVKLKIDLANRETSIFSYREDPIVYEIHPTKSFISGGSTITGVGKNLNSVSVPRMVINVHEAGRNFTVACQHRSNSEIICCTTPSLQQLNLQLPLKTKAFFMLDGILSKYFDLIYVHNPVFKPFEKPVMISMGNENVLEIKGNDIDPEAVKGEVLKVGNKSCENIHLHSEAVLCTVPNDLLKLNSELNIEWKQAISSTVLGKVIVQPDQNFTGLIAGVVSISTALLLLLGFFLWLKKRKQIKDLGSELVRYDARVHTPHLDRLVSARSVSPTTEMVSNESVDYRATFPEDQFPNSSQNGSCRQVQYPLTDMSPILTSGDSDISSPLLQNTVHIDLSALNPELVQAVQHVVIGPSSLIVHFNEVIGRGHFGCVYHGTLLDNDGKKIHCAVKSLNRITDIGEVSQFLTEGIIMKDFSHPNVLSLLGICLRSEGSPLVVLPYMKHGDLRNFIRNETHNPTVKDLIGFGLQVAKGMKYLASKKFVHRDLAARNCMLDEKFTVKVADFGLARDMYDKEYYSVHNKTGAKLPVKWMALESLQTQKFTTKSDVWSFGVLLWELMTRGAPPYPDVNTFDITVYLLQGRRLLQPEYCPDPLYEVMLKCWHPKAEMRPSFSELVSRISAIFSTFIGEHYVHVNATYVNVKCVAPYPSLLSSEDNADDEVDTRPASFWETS
Assay [3] concerns the target heparin sulfate proteoglycans (HSPG). The following applies: HSPG on the cell surface and extracellular matrix; read-out: Kd, low affinity binding site; cited from earlier work.

For the molecule `C#Cc1cccc(Nc2ncnc3cc(OCCOC)c(OCCOC)cc23)c1` [erlotinib], the “T/C (%) = ΔT/ΔC×100, change in tumor volume” value in assay [1] is listed as 45%.
For `CCN(CC)CCNC(=O)c1c(C)[nH]c(/C=C2\C(=O)Nc3ccc(F)cc32)c1C` [sunitinib], the “T/C (%) = ΔT/ΔC×100, change in tumor volume” value in assay [2] came out at 48%.
In the case of “HGF: multifunctional heterodimeric polypeptide, 102 kDa, ligand of c-Met”, the dissociation constant Kd – broadly, the constant that tells how readily two partners part at equilibrium – with c-Met receptor is 0.2 nM; in assay [3] it was 1 nM.
